≈ marks a conversion by molar mass, not a printed value.
Key:
Assay type in all cases: functional
Nakaseomyces glabratus = assay: Minimal inhibitory effect against the Candida glabrata (2375E).
Kluyveromyces marxianus = assay: Minimal inhibitory effect against the Candida pseudotropicalis (2371E).
Aspergillus flavus = assay: Minimal inhibitory effect against the Aspergillus flavus (C1150).
Candida albicans [1] = assay: Minimal inhibitory effect against the Candida albicans (4711E).
Cryptococcus neoformans = assay: Minimal inhibitory effect against the Cryptococcus neoformans (2867E).
Candida albicans [2] = assay: Minimal inhibitory effect against the Candida albicans (2005E).
Candida tropicalis = assay: Minimal inhibitory effect against the Candida tropicalis (2808E).
Candida parapsilosis = assay: Minimal inhibitory effect against the Candida parapsilosis (2372E).; details: Lodderomyces parapsilosis

| SMILES | MIC (Nakaseomyces glabratus) | MIC (Kluyveromyces marxianus) | MIC (Aspergillus flavus) | MIC (Candida albicans [1]) | MIC (Cryptococcus neoformans) | MIC (Candida albicans [2]) | MIC (Candida tropicalis) | MIC (Candida parapsilosis) |
| --- | --- | --- | --- | --- | --- | --- | --- | --- |
| CC(C)C1=CC2CC3(C=O)[C@@H]4CC[C@@H](C)[C@H]4CC2(CO[C@H]2C[C@@H]4OC[C@H](C)[C@@H]4[C@@H](C)O2)C13C(=O)O (stereo partly specified) | 16 µg/mL (≈ 32.9 µM) | < 0.001 µg/mL | > 125 µg/mL | 0.004 µg/mL (≈ 0.00822 µM) | 0.5 µg/mL (≈ 1.03 µM) | 0.001 µg/mL (≈ 0.00205 µM) | 0.03 µg/mL (≈ 0.0616 µM) | > 125 µg/mL |
| CC(C)C1=CC2CC3(C=O)[C@@H]4CC[C@@H](C)[C@H]4CC2(CO[C@H]2C[C@H]4[C@H](OCC4(C)C)[C@@H](C)O2)C13C(=O)O (stereo partly specified) | 8 µg/mL (≈ 16 µM) | < 0.001 µg/mL | > 125 µg/mL | < 0.001 µg/mL | 4 µg/mL (≈ 7.99 µM) | < 0.001 µg/mL | 0.06 µg/mL (≈ 0.12 µM) | > 125 µg/mL |
| CC(C)C1=CC2CC3(C=O)[C@@H]4CC[C@@H](C)[C@H]4CC2(CO[C@@H]2O[C@H](C)[C@H]4OC[C@@H](C)C4[C@@H]2O)C13C(=O)O (single isomer, unassigned) | 62 µg/mL (≈ 123 µM) | 0.25 µg/mL (≈ 0.497 µM) | > 125 µg/mL | 0.25 µg/mL (≈ 0.497 µM) | 31 µg/mL (≈ 61.7 µM) | 0.008 µg/mL (≈ 0.0159 µM) | 0.5 µg/mL (≈ 0.995 µM) | 125 µg/mL (≈ 249 µM) |
| CC[C@H]1CO[C@H]2[C@@H]1C[C@H](OCC13C[C@@H]4[C@H](C)CC[C@H]4C4(C=O)CC1C=C(C(C)C)C34C(=O)O)O[C@@H]2C (stereo partly specified) | 0.5 µg/mL (≈ 0.999 µM) | < 0.001 µg/mL | 62 µg/mL (≈ 124 µM) | < 0.001 µg/mL | < 0.25 µg/mL | < 0.001 µg/mL | < 0.001 µg/mL | 4 µg/mL (≈ 7.99 µM) |
| CC(C)C1=CC2CC3(C=O)[C@@H]4CC[C@@H](C)[C@H]4CC2(CO[C@H]2C[C@H]4[C@H](OC[C@H]4C)[C@@H](C)O2)C13C(=O)O (stereo partly specified) | 4 µg/mL (≈ 8.22 µM) | 0.001 µg/mL (≈ 0.00205 µM) | > 125 µg/mL | < 0.001 µg/mL | 4 µg/mL (≈ 8.22 µM) | 0.001 µg/mL (≈ 0.00205 µM) | 0.004 µg/mL (≈ 0.00822 µM) | > 125 µg/mL |
| CC(C)C1=CC2CC3(C=O)[C@@H]4CC[C@@H](C)[C@H]4CC2(CO[C@@H]2O[C@H](C)[C@H]4OC[C@H](C)C4[C@@H]2O)C13C(=O)O (single isomer, unassigned) | 31 µg/mL (≈ 61.7 µM) | 1 µg/mL (≈ 1.99 µM) | > 125 µg/mL | 1 µg/mL (≈ 1.99 µM) | 1 µg/mL (≈ 1.99 µM) | 0.5 µg/mL (≈ 0.995 µM) | 2 µg/mL (≈ 3.98 µM) | 125 µg/mL (≈ 249 µM) |
| CC(C)C1=CC2CC3(C=O)[C@@H]4CC[C@@H](C)[C@H]4CC2(CO[C@H]2C[C@H]4[C@H](OC[C@@H]4C)[C@@H](C)O2)C13C(=O)O (stereo partly specified) | 0.5 µg/mL (≈ 1.03 µM) | 0.004 µg/mL (≈ 0.00822 µM) | 62 µg/mL (≈ 127 µM) | < 0.001 µg/mL | 0.25 µg/mL (≈ 0.514 µM) | < 0.001 µg/mL | 0.008 µg/mL (≈ 0.0164 µM) | 2 µg/mL (≈ 4.11 µM) |
| CC(C)C1=CC2CC3(C=O)[C@@H]4CC[C@@H](C)[C@H]4CC2(CO[C@H]2C[C@@H]4OC[C@@H](C)[C@@H]4[C@@H](C)O2)C13C(=O)O (stereo partly specified) | 8 µg/mL (≈ 16.4 µM) | < 0.001 µg/mL | > 125 µg/mL | < 0.001 µg/mL | 1 µg/mL (≈ 2.05 µM) | < 0.001 µg/mL | 0.008 µg/mL (≈ 0.0164 µM) | > 125 µg/mL |
| OC(Cn1cncn1)(Cn1cncn1)c1ccc(F)cc1F [FLUCONAZOLE] | 4 µg/mL (≈ 13.1 µM) | – | – | 0.12 µg/mL (≈ 0.392 µM) | – | – | 2 µg/mL (≈ 6.53 µM) | 0.5 µg/mL (≈ 1.63 µM) |
| CC(C)C1=CC2CC3(C=O)[C@@H]4CC[C@@H](C)[C@H]4CC2(CO[C@H]2C[C@@H]4OC(C)(C)O[C@@H]4[C@@H](C)O2)C13C(=O)O (stereo partly specified) | 31 µg/mL (≈ 61.7 µM) | 0.004 µg/mL (≈ 0.00796 µM) | > 125 µg/mL | 0.004 µg/mL (≈ 0.00796 µM) | 0.12 µg/mL (≈ 0.239 µM) | < 0.001 µg/mL | 0.12 µg/mL (≈ 0.239 µM) | > 125 µg/mL |
| CC[C@@H]1CO[C@H]2[C@@H]1C[C@H](OCC13C[C@@H]4[C@H](C)CC[C@H]4C4(C=O)CC1C=C(C(C)C)C34C(=O)O)O[C@@H]2C (stereo partly specified) | 4 µg/mL (≈ 7.99 µM) | < 0.001 µg/mL | > 125 µg/mL | < 0.001 µg/mL | 1 µg/mL (≈ 2 µM) | < 0.001 µg/mL | < 0.001 µg/mL | > 125 µg/mL |
| CC(C)C1=CC2CC3(C=O)[C@@H]4CC[C@@H](C)[C@H]4CC2(CO[C@H]2C[C@H]4[C@H](OC[C@H]4C(C)C)[C@@H](C)O2)C13C(=O)O (stereo partly specified) | 62 µg/mL (≈ 120 µM) | < 0.001 µg/mL | > 125 µg/mL | < 0.001 µg/mL | 4 µg/mL (≈ 7.77 µM) | < 0.001 µg/mL | 2 µg/mL (≈ 3.89 µM) | > 125 µg/mL |
| CC(C)C1=CC2CC3(C=O)[C@@H]4CC[C@@H](C)[C@H]4CC2(CO[C@H]2C[C@H]4[C@H](OC[C@@H]4C(C)C)[C@@H](C)O2)C13C(=O)O (stereo partly specified) | 2 µg/mL (≈ 3.89 µM) | < 0.001 µg/mL | > 125 µg/mL | < 0.001 µg/mL | 0.25 µg/mL (≈ 0.486 µM) | < 0.001 µg/mL | 0.004 µg/mL (≈ 0.00777 µM) | 16 µg/mL (≈ 31.1 µM) |
| CC[C@@H]1CO[C@H]2C1[C@H](O)[C@H](OCC13C[C@@H]4[C@H](C)CC[C@H]4C4(C=O)CC1C=C(C(C)C)C34C(=O)O)O[C@@H]2C (single isomer, unassigned) | 16 µg/mL (≈ 31 µM) | 0.06 µg/mL (≈ 0.116 µM) | > 125 µg/mL | 0.12 µg/mL (≈ 0.232 µM) | < 0.25 µg/mL | 0.015 µg/mL (≈ 0.029 µM) | 0.25 µg/mL (≈ 0.484 µM) | 125 µg/mL (≈ 242 µM) |
| CC[C@H]1CO[C@H]2C1[C@H](O)[C@H](OCC13C[C@@H]4[C@H](C)CC[C@H]4C4(C=O)CC1C=C(C(C)C)C34C(=O)O)O[C@@H]2C (single isomer, unassigned) | 8 µg/mL (≈ 15.5 µM) | 0.06 µg/mL (≈ 0.116 µM) | > 125 µg/mL | 0.12 µg/mL (≈ 0.232 µM) | < 0.25 µg/mL | 0.03 µg/mL (≈ 0.0581 µM) | 0.5 µg/mL (≈ 0.968 µM) | 125 µg/mL (≈ 242 µM) |

— ChEMBL document CHEMBL1136023, “Antifungal Sordarins. Part 4: synthesis and structure--activity relationships of 3',4'-fused alkyl-tetrahydrofuran derivatives” (2002)
